This passage reports Activity and IC50 results from ChEMBL document CHEMBL3822384, “2-(3-Methoxyphenyl)quinazoline Derivatives: A New Class of Direct Constitutive Androstane Receptor (CAR) Agonists” (J Med Chem, 2016).

Structures are written as SMILES. Calls of active or inactive are those of the source. No cut-off for these calls is given here.

Data set [1] deals with T1, Glucocorticoid receptor (Homo sapiens) (UniProt P04150).
T1 sequence (whole entry): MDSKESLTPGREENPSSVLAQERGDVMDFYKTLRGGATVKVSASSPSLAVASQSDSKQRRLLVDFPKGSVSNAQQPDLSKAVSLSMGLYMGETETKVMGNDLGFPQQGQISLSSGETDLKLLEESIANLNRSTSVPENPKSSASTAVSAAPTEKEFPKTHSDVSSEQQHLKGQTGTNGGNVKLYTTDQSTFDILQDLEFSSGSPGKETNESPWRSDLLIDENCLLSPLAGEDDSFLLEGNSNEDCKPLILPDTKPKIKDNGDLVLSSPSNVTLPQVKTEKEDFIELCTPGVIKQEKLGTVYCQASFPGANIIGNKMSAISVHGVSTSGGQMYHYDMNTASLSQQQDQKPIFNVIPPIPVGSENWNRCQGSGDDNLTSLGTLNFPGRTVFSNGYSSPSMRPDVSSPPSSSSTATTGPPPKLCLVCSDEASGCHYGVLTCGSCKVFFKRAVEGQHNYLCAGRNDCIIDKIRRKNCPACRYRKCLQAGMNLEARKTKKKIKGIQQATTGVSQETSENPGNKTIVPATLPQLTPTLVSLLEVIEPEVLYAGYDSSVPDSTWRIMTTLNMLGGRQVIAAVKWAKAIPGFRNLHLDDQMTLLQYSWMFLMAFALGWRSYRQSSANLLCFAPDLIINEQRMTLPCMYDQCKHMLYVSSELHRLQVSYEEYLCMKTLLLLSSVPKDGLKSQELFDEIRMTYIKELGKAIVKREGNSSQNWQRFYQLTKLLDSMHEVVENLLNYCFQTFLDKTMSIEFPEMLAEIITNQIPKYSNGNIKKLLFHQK
The experiment in a line: Agonist activity at glucocorticoid receptor (unknown origin).

In data set [2] the target is T2, Nuclear receptor subfamily 1 group I member 3 (Homo sapiens, UniProt Q14994).
T2 sequence (Q14994 whole entry): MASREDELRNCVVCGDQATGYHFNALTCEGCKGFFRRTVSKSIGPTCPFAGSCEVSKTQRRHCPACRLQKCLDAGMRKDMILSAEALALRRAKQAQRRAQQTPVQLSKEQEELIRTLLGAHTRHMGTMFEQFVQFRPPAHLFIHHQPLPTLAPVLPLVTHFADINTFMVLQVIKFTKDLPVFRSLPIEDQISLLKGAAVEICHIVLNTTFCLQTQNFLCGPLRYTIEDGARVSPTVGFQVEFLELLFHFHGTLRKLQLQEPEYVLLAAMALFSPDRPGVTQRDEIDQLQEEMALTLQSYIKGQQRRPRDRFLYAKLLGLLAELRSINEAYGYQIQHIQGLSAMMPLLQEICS
Put plainly: Agonist activity at human CAR expressed in human HepG2 cells assessed as induction of CYP2B6 mRNA expression at 1 to 10 uM after 24 hrs by qRT-PCR method. The class given is cell-based. The conditions noted are these: hepg2, 24 h.

The target of a further data set is Cytochrome P450 3A4 (Homo sapiens, UniProt P08684). Put plainly: Inhibition of recombinant human CYP3A4 by P450-Glo luminescence assay. The class given is ADME.
Cytochrome P450 3A4, sequence (P08684 whole entry): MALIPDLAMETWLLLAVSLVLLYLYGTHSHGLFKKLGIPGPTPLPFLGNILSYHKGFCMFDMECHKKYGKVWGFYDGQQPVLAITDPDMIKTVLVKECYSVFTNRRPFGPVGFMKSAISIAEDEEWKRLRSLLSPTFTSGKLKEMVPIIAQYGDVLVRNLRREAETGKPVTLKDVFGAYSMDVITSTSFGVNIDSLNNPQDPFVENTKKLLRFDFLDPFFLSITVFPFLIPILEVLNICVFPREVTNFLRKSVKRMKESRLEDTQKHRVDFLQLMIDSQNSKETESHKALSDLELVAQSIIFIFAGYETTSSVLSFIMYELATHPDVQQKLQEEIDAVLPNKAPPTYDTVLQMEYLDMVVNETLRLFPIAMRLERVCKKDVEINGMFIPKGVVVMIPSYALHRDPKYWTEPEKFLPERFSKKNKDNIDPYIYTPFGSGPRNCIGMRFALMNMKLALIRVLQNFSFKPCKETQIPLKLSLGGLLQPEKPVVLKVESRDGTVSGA
Data set [3] addresses T3, Vitamin D3 receptor (Homo sapiens) (UniProt P11473).
T3 sequence (whole entry): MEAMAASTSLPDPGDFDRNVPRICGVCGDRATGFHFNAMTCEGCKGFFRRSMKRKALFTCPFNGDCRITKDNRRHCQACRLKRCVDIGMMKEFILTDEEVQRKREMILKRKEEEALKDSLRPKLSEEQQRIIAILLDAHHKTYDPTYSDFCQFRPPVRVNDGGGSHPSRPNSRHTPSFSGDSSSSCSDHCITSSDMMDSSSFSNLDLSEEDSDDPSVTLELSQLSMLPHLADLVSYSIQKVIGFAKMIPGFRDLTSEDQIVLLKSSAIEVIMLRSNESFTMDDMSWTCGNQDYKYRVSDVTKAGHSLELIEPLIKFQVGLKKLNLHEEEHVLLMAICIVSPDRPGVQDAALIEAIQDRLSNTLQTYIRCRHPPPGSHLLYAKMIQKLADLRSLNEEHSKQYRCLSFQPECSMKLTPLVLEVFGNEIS
The experiment in a line: Agonist activity at VDR in human primary hepatocytes assessed as upregulation of CYP3A4 mRNA expression at 10 uM after 24 hrs by qRT-PCR method. Type of data set: cell-based. Conditions: Hepatocyte.

The target of data set [4] is T2, Nuclear receptor subfamily 1 group I member 3. The experiment in a line: Agonist activity at human CAR expressed in human HepG2 cells assessed as induction of CYP2B6 mRNA expression at 1 to 5 uM after 24 hrs by qRT-PCR method. Type of data set: cell-based. Conditions: hepg2, 24 h.

`COc1cccc(-c2nc(OC)c3ccccc3n2)c1`: the result in data set [1] was inactive. The outcome in data set [2] was Active. In addition, at Cytochrome P450 3A4 (read-out: IC50), the 50% inhibitory concentration (IC50) came out at 12.9 µM. Besides, in data set [3], the result was Active.
Turning to `COc1cccc(-c2nc3ccccc3c(=S)[nH]2)c1`, in data set [4], the outcome was Active. Also, the result in data set [1] was inactive. Further, the half-maximal inhibitory concentration (IC50) result on Cytochrome P450 3A4 is reported as “Not Active”. Moreover, the outcome in data set [3] was Active.
Consider `COc1cccc(-c2nc(SC)c3ccccc3n2)c1`, for which the outcome in data set [1] was inactive. The 50% inhibitory concentration (IC50) at Cytochrome P450 3A4 (read-out: IC50) stood at 22.9 µM. The outcome in data set [3] was Active.
